Reference: patent publication US6500944B2, “Sulfurizing reagent: 3-aryl-1,2,4-dithiazoline-5-ones” (Avecia Biotechnology, Inc., priority 1997, dated 2002)

Legend:
[1] = Solubility study in CH3CN; type: physicochemical; settings: 25° C.
Description: (§1) The solubility and stability studies were carried out in CH3CN at 25° C. The saturated solution was dried, and the solubility was determined by the weight of the testing compounds in the exact volume of testing solution. The stability was determined based on either TLC or HPLC and ^1H-NMR analyses.

Stability study in CH3CN = type: physicochemical; settings: 25° C., checked by HPLC and 1H-NMR
Description: Stability and solubility studies of the sulfur transfer reagents were performed. […] The stability of the compound was checked by HPLC and ^1H-NMR.
as §1

- solubility in CH3CN [1]: highly soluble
- stable in CH3CN (Stability study in CH3CN): more than thirty
Compound: O=c1nc(-c2ccccc2)ss1 [3-phenyl-1,2,4-dithiazoline-5-one]
